The values that follow come from US12310962B2, “Methods and compositions for treating cancer” (Zetagen Therapeutics, Inc., priority 2019, dated 2025).

Each structure is given as a SMILES string. Entries after “also recorded” stand apart in the source; their conditions may differ. A value given as a limit tells only on which side of the number the result lay.

Data set [1] has as its system osteosarcoma cells (SaOS2). The data set is described as follows: LDH release cytotoxicity assay. It counts as cell-based. Conditions: naloxone added for 3 hours, LDH release at 24 hours post-treatment, corrected for cell number, p<0.001.
Data set [2] concerns breast cancer cells (BT20). The data set is described as follows: LDH release cytotoxicity assay. Conditions: naloxone added for 3 hours, LDH release at 24 hours post-treatment, corrected for cell number, p<0.001. The data set is classed as cell-based.
In data set [3] the test system is breast cancer cells (BT474). The data set is described as follows: LDH release cytotoxicity assay. It counts as cell-based. The settings on record: naloxone added for 3 hours, LDH release at 24 hours post-treatment, corrected for cell number, p<0.001.
Data set [4] can be described thus: Cell number after 72 hours of naloxone treatment. The data set is classed as cell-based. Conditions: cells printed as "90"; highest dose; after 72 hours.
For data set [5], the system named is triple negative breast cancer (TNBC) cells BT474. The data set can be described thus: Cell number after 72 hours of naloxone treatment. It counts as cell-based. The settings on record: BT474; 72 h exposure; dose dependent.
Data set [6] concerns non-tumor cells, breast epithelium (HUMEC) or vascular endothelium (HUVEC). The data set can be described thus: Cell number of non-tumor control cells versus naloxone dose. The data set is classed as cell-based. Conditions: 72 h.
The next data set deals with BT474 TNBC cells. The data set can be described thus: Tumor spheroid assay. It counts as cell-based. The settings on record: 1-5 mM, dose dependent. Here is the method: (§1) FIGS. 3A-3C depict a spheroid assay showing that naloxone (an OGFR antagonist) treatment decreases tumor size in vitro. […] FIG. 3B depicts a graph showing quantification of the size of the spheroids formed in the spheroid assay described in FIG. 3A as percent change in spheroid area fraction between time 0 and 120 hours after treatment. FIG. 3C depicts a graph showing quantification of the size of the spheroids formed in the spheroid assay described in FIG. 3A as percent change in cell area fraction in each spheroid at 120 hours after treatment.
(§2) Malignant tumors are characterized by invasion of surrounding normal tissues, and the spheroid assay is a simple micro-plate method (based on uniform, self-assembling 3D tumor spheroids) that is routinely used to assess tumor growth. The effects of anti-tumor efficacy were determined by quantifying the size of the spheroids formed in the and calculate percent change in spheroid area fraction between time 0 and 120 hours after treatment as shown in FIG. 3B. The anti-tumor efficacy was also determined by quantifying the percent change in cell area fraction in each spheroid at 120 hours after treatment as determined by staining the cells with crystal violet as shown in FIG. 3C.

In another data set the test system is SaOS2 osteosarcoma cells. The data set is described as follows: Tumor spheroid assay. Conditions: 1-5 mM, dose dependent. It counts as cell-based. Here is the method: as §1, §2
Another data set has as its system SaOS2 cells. The data set is described as follows: Cell number after 72 hours of naloxone treatment. Conditions: highest dose.
The next data set relates to BT20. The data set can be described thus: Cell number after 72 hours of naloxone treatment. Conditions: highest dose.
The mark [7] stands for this setting: between time 0 and 120 hours after treatment.

As to `C=CCN1CC[C@]23c4c5ccc(O)c4O[C@H]2C(=O)CC[C@@]3(O)[C@H]1C5` [Naloxone, naloxone], the “increase in LDH values relative to normal (non-tumor) cells” value in data set [1] turned out to be 6 fold; in data set [2], 6 fold; in [3] it was 3 fold. For the same compound, the “decrease in cell number” value in data set [4] came out at 90%; in the data set on SaOS2 cells, 60%; in the data set on BT20, 90%. Moreover, in [5], the “number of metabolically active cells compared to control non-tumor cells (HUMEC, HUVEC)” value was “significant reduction”. Besides, the “dose up to which a non-tumor cell sparing effect is provided” value in [6] was no more than 2.5 mM. For the same compound, the “tumor mass cellularity (percent change in cell area fraction, crystal violet)” value with BT474 TNBC cells (120 hours after treatment) and with SaOS2 osteosarcoma cells (120 hours after treatment) was “decreased” throughout. Further, the “size of the tumor masses (percent change in spheroid area fraction)” value is “reduced tumor growth; also recorded: decreased the size of the tumor masses” with BT474 TNBC cells (setting [7]) and “decreased the size of the tumor masses” with SaOS2 osteosarcoma cells (setting [7]).
